Measured values published in PubChem BioAssay AID192 (DTP/NCI, 2004).
“And” between values parts separate entries of the source, which are not always exact repeats. Equal entries are not always repeated. Inconclusive results and toxic doses are left out. Peptide text beside a SMILES is read from it. * marks the point of attachment. Cbz = O=C(OCc1ccccc1)*

Tested on: BDF1 mice, B16 melanoma ip, median survival T/C
Assay: NCI In Vivo Anticancer Drug Screen. Data for tumor model B16 Melanoma (intraperitoneal) in B6D2F1 (BDF1) mice
Conditions: endpoint: median survival time, higher = longer survival
Method in brief: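 Tumor-bearing mice received test compound or vehicle. Survival or tumor size was then measured in both groups. The treated-group figure was divided by the control-group figure.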

[1] = dose: 6.25 mg/kg/injection, schedule: Q01DX009 (ip), vehicle: Klucel (hydroxypropylcellulose) (HPC)
[2] = dose: 12.5 mg/kg/injection, schedule: Q01DX009 (ip), vehicle: Klucel (hydroxypropylcellulose) (HPC)
[3] = dose: 25.0 mg/kg/injection, schedule: Q01DX009 (ip), vehicle: Klucel (hydroxypropylcellulose) (HPC)
[4] = dose: 50.0 mg/kg/injection, schedule: Q01DX009 (ip), vehicle: Klucel (hydroxypropylcellulose) (HPC)
[5] = dose: 100.0 mg/kg/injection, schedule: Q01DX009 (ip), vehicle: Klucel (hydroxypropylcellulose) (HPC)
[6] = dose: 200.0 mg/kg/injection, schedule: Q01DX009 (ip), vehicle: Klucel (hydroxypropylcellulose) (HPC)
[7] = dose: 400.0 mg/kg/injection, schedule: Q01DX009 (ip), vehicle: Klucel (hydroxypropylcellulose) (HPC)
[8] = dose: 6.25 mg/kg/injection, schedule: Q01DX009 (ip), vehicle: saline with Tween-80
[9] = dose: 12.5 mg/kg/injection, schedule: Q01DX009 (ip), vehicle: saline with Tween-80
[10] = dose: 25.0 mg/kg/injection, schedule: Q01DX009 (ip), vehicle: saline with Tween-80
[11] = dose: 50.0 mg/kg/injection, schedule: Q01DX009 (ip), vehicle: saline with Tween-80
[12] = dose: 100.0 mg/kg/injection, schedule: Q01DX009 (ip), vehicle: saline with Tween-80
[13] = dose: 200.0 mg/kg/injection, schedule: Q01DX009 (ip), vehicle: saline with Tween-80
[14] = dose: 25.0 mg/kg/injection, schedule: Q01DX009 (ip), vehicle: saline
[15] = dose: 100.0 mg/kg/injection, schedule: Q01DX009 (ip), vehicle: saline
[16] = dose: 100.0 mg/kg/injection, schedule: Q04DX003 (ip), vehicle: Klucel (hydroxypropylcellulose) (HPC)
[17] = dose: 200.0 mg/kg/injection, schedule: Q04DX003 (ip), vehicle: Klucel (hydroxypropylcellulose) (HPC)
[18] = dose: 400.0 mg/kg/injection, schedule: Q04DX003 (ip), vehicle: Klucel (hydroxypropylcellulose) (HPC)
[19] = dose: 400.0 mg/kg/injection, schedule: Q01DX009 (ip), vehicle: saline with Tween-80

For Cc1ccc(NCC2(/N=C/c3ccccc3)OC(CO)C(O)C2O)cc1 (stereo unspecified), the T/C [1] was 98 % of control, the T/C [2] was 109 % of control and the T/C [3] was 91 % of control and 95 % of control. For the same compound, the T/C [4] was 90 % of control and 92 % of control, the T/C [5] was 93 % of control and 114 % of control and the T/C (dose: 177.0 mg/kg/injection, schedule: Q01DX009 (ip), vehicle: Klucel (hydroxypropylcellulose) (HPC)) was 123 % of control. For the same compound, the T/C [6] was 104 % of control, the T/C (dose: 266.0 mg/kg/injection, schedule: Q01DX009 (ip), vehicle: Klucel (hydroxypropylcellulose) (HPC)) was 123 % of control and the T/C [7] was 109 % of control.

In the case of CN=S(=O)(OCCCCCOS(=O)(=NC)c1ccc(C)cc1)c1ccc(C)cc1 (stereo unspecified), the T/C [8] is reported as 101 % of control, the T/C [9] is reported as 103 % of control and the T/C [10] is reported as 99 % of control. The T/C [11] was 102 % of control, the T/C [12] was 101 % of control and the T/C [13] was 106 % of control.

In the case of Nc1nc2c(c(=O)[nH]1)NC(CCNc1ccc(C(=O)NC(CCC(=O)O)C(=O)O)cc1)CN2 (stereo unspecified), the T/C [14] is reported as 94 % of control, the T/C (dose: 50.0 mg/kg/injection, schedule: Q01DX009 (ip), vehicle: saline) is reported as 102 % of control and the T/C [15] is reported as 110 % of control.

In the case of C=C(NC(C)=O)C(=O)CCC(N)=O, the T/C (dose: 5.0 mg/kg/injection, schedule: Q01DX009 (ip), vehicle: saline) is reported as 92 % of control, the T/C (dose: 10.0 mg/kg/injection, schedule: Q01DX009 (ip), vehicle: saline) is reported as 102 % of control and the T/C (dose: 20.0 mg/kg/injection, schedule: Q01DX009 (ip), vehicle: saline) is reported as 97 % of control.

Cc1cc(NS(=O)(=O)c2ccc(N)cc2)no1 was tested, and the T/C [16] was 97 % of control, the T/C [17] was 97 % of control and the T/C [18] was 93 % of control.

In the case of CCCCCC(CN(C)C)C(O)/C=C/c1ccccc1Cl (stereo unspecified), the T/C (dose: 6.0 mg/kg/injection, schedule: Q01DX009 (ip), vehicle: saline) is reported as 96 % of control, the T/C (dose: 12.0 mg/kg/injection, schedule: Q01DX009 (ip), vehicle: saline) is reported as 98 % of control and the T/C [14] is reported as 103 % of control.

O=C1CC2C=CCC12 (stereo unspecified) was tested, and the T/C [12] was 107 % of control, the T/C [13] was 100 % of control and the T/C [19] was 91 % of control.

For O=C1C=CC(=O)N1c1ccc2c(c1)oc(=O)c1ccccc12, the T/C [4] was 87 % of control.

For CC(C)(O)C(C)(O)c1ccc(Cl)cc1 (stereo unspecified), the T/C [9] was 88 % of control, the T/C [10] was 91 % of control and the T/C [11] was 103 % of control. For the same compound, the T/C [12] was 104 % of control and the T/C [13] was 92 % of control.

For CNc1ccc(C(=O)O)cc1OC, the T/C (dose: 100.0 mg/kg/injection, schedule: Q04DX003 (ip), vehicle: saline with Tween-80) was 95 % of control, the T/C (dose: 200.0 mg/kg/injection, schedule: Q04DX003 (ip), vehicle: saline with Tween-80) was 91 % of control and the T/C (dose: 400.0 mg/kg/injection, schedule: Q04DX003 (ip), vehicle: saline with Tween-80) was 90 % of control.

CCC(C)C1NC(=O)C(NC(=O)c2c3nc4c(C(=O)NC5C(=O)NC(C(C)CC)C(=O)N6CCCC6C(=O)N(C)CC(=O)N(C)C(C(C)C)C(=O)OC5C)ccc(C)c4oc-3c(C)c(=O)c2Cl)C(C)OC(=O)C(C(C)C)N(C)C(=O)CN(C)C(=O)C2CCCN2C1=O (stereo unspecified) was tested, and the T/C (dose: 1.25 mg/kg/injection, schedule: Q01DX009 (ip), vehicle: Klucel (hydroxypropylcellulose) (HPC)) was 117 % of control and the T/C (dose: 10.0 mg/kg/injection, schedule: Q01DX009 (ip), vehicle: Klucel (hydroxypropylcellulose) (HPC)) was 164 % of control.

In the case of COc1cc(OC)c(/C=C/c2cc[n+](C)c3ccccc23)c(OC)c1, the T/C (dose: 0.75 mg/kg/injection, schedule: Q01DX009 (ip), vehicle: saline) is reported as 105 % of control, the T/C (dose: 1.5 mg/kg/injection, schedule: Q01DX009 (ip), vehicle: saline) is reported as 95 % of control and the T/C (dose: 3.0 mg/kg/injection, schedule: Q01DX009 (ip), vehicle: saline) is reported as 97 % of control.

In the case of CCC(CC)(C[NH-])C[NH-].[Cl][Pt+2][Cl], the T/C (dose: 1.2 mg/kg/injection, schedule: Q01DX009 (ip), vehicle: carboxymethylcellulose (CMC)) is reported as 164 % of control and the T/C (dose: 2.4 mg/kg/injection, schedule: Q01DX009 (ip), vehicle: carboxymethylcellulose (CMC)) is reported as 164 % of control.

In the case of CNC(=O)c1cccc2c(Nc3ccc(NS(C)(=O)=O)cc3OC)c3cccc(C)c3nc12, the T/C (dose: 1.5 mg/kg/injection, schedule: Q01DX009 (ip), vehicle: water) is reported as 162 % of control and the T/C (dose: 3.0 mg/kg/injection, schedule: Q01DX009 (ip), vehicle: water) is reported as 201 % of control.

In the case of O=C(NC(Cc1ccccc1)C(=O)NC(CO)C(=O)O)OCc1ccccc1 (stereo not drawn) (Cbz-Phe-Ser-OH; configuration not given here), the T/C [11] is reported as 95 % of control and the T/C [12] is reported as 90 % of control.

With Nc1nc([Se])c2ncn(C3CC(O)C(CO)O3)c2n1 (stereo unspecified) the T/C [1] was 105 % of control, the T/C [2] was 124 % of control and the T/C [3] was 122 % of control. For the same compound, the T/C [4] was 111 % of control.

OCCN1CCC2(CC1)SSC1(CCN(CCO)CC1)S2 was tested, and the T/C [15] was 117 % of control and the T/C (dose: 200.0 mg/kg/injection, schedule: Q01DX009 (ip), vehicle: saline) was 112 % of control.

COCc1ccc(COC)cc1 was tested, and the T/C (dose: 100.0 mg/kg/injection, schedule: Q04DX003 (ip), vehicle: saline) was 102 % of control, the T/C (dose: 200.0 mg/kg/injection, schedule: Q04DX003 (ip), vehicle: saline) was 102 % of control and the T/C (dose: 400.0 mg/kg/injection, schedule: Q04DX003 (ip), vehicle: saline) was 100 % of control.

For Cc1cc(OC(=O)Nc2ccccc2Cl)ccc1[N+](=O)[O-], the T/C [16] was 96 % of control, the T/C [17] was 96 % of control and the T/C [18] was 93 % of control.

CC(=O)CC(=O)OCc1ccccc1 was tested, and the T/C [12] was 107 % of control, the T/C [13] was 105 % of control and the T/C [19] was 100 % of control.

For CCC(C)(C)c1ccc(O)c(C(C)(C)CC)c1, the T/C [5] was 93 % of control, the T/C [6] was 106 % of control and the T/C [7] was 106 % of control.

C1CC[N-]CC1.C1CC[N-]CC1.CS(C)=O.[Cl][Rh]([Cl])[Cl] was tested, and the T/C (dose: 5.0 mg/kg/injection, schedule: Q01DX009 (ip), vehicle: saline with Tween-80) was 99 % of control and the T/C (dose: 10.0 mg/kg/injection, schedule: Q01DX009 (ip), vehicle: saline with Tween-80) was 95 % of control.

In the case of O=C(O[Si](Cc1ccccc1)(Cc1ccccc1)Cc1ccccc1)N(CCCl)CCCl, the T/C [8] is reported as 100 % of control, the T/C [9] is reported as 112 % of control and the T/C [10] is reported as 104 % of control. For the same compound, the T/C [11] was 108 % of control.

CC(NC(=O)C(Cc1ccc(O)cc1)NC(=O)C(C)NC(=O)OCc1ccccc1)C(=O)O (stereo not drawn) (Cbz-Ala-Tyr-Ala-OH; configuration not given here) was tested, and the T/C [11] was 98 % of control, the T/C [12] was 93 % of control and the T/C [13] was 96 % of control. For the same compound, the T/C [19] was 92 % of control.

For CCc1ccccc1N1CCN(C(=O)c2cc(OC)c(OC)c(OC)c2)CC1, the T/C [2] was 88 % of control, the T/C [3] was 94 % of control and the T/C [4] was 94 % of control.

In the case of C=C(C)[C@@]12O[C@@]3(/C=C/C=C/CCCCC)O[C@@H]1[C@@H]1[C@@H]4O[C@]4(COC(=O)CCCCCCCCCCCCCCC)[C@@H](O)[C@]4(O)C(=O)C(C)=CC4[C@@]1(O3)[C@H](C)[C@H]2OC(=O)c1ccccc1 (stereo partly specified), the T/C (dose: 0.5 micrograms/kg/injection, schedule: Q01DX009 (ip), vehicle: saline) is reported as 102 % of control, the T/C (dose: 1.0 micrograms/kg/injection, schedule: Q01DX009 (ip), vehicle: saline) is reported as 106 % of control and the T/C (dose: 1.9 micrograms/kg/injection, schedule: Q01DX009 (ip), vehicle: saline) is reported as 105 % of control. For the same compound, the T/C (dose: 3.8 micrograms/kg/injection, schedule: Q01DX009 (ip), vehicle: saline) was 99 % of control, the T/C (dose: 7.5 micrograms/kg/injection, schedule: Q01DX009 (ip), vehicle: saline) was 102 % of control and the T/C (dose: 15.0 micrograms/kg/injection, schedule: Q01DX009 (ip), vehicle: saline) was 103 % of control. The T/C (dose: 30.0 micrograms/kg/injection, schedule: Q01DX009 (ip), vehicle: saline) was 104 % of control.

CCCCCCCCCCCCCC(=O)N(C)C was tested, and the T/C (dose: 12.5 mg/kg/injection, schedule: Q01DX009 (ip), vehicle: saline) was 97 % of control, the T/C [14] was 97 % of control and the T/C [11] was 93 % of control.
